This experiment has as its system NHACs. Kind of experiment: calcium flux assay. It is filed as cell-based, human. To be noted: Homo sapiens; for Emax: read-out: (A) % Efficacy. The procedure:
NHACs were plated in 1536 Greiner plate at 2000 cells/well in 4 ul volume. 24 hours later, 4 ul of Calcium 5 dye solution (Hank's Balanced Salt/HEPES buffer containing 5 mM of Probenecid) was then added and incubated for 1 hour at room temperature. Fluorescence readings at excitation wavelength of 470-495 nm and emission wavelength of 515-575 nm were done using FLIPR high-throughput screening system (Molecular Devices, Sunnyvale, CA). The test compound was then added to each well at the indicated dose. Signal was measured prior compound dispense and after using a first interval of 1 second for 60 reads and second interval of 3 second for 20 reads. Data was analyzed using Molecular Devices ScreenWorks® Software.
(In general: A change in cytosolic calcium serves as a functional read-out for many receptors and channels.)

For orientation: EC50 means the concentration that produces a half-maximal response. As to `COc1ccc(NC(=O)[C@@H]2[C@@H]3O[C@@H]([C@H]4C[C@H]43)[C@@H]2c2ccncc2)cn1` [Example 33, (1S,2S,4R,5R,6S,7S)—N-(6-methoxypyridin-3-yl)-7-(pyridin-4-yl)-8-oxatricyclo[3.2.1.0^2,4]octane-6-carboxamide], the EC50 is 4.6 µM and the Emax is 49%.
As for `CN(C)[C@@H]1C[C@H]2O[C@@H]1[C@H](c1ccnc(F)c1)[C@H]2C(=O)Nc1ccc(Cl)c(Cl)c1` [Example 172, (1R,2R,3S,4R,5R)—N-(3,4-dichlorophenyl)-5-(dimethylamino)-3-(2-fluoropyridin-4-yl)-7-oxabicyclo[2.2.1]heptane-2-carboxamide], the EC50 was found to be 16 µM and the Emax is 177%.
With `Cc1cc([C@@H]2[C@@H](C(=O)Nc3ccc(Cl)c(Cl)c3)[C@@H]3O[C@H]2C[C@H]3F)ccn1` [Example 106, (1S,2R,3S,4S,6R)—N-(3,4-dichlorophenyl)-6-fluoro-3-(2-methylpyridin-4-yl)-7-oxabicyclo[2.2.1]heptane-2-carboxamide], the EC50 is 24 µM and the Emax amounted to 84%.
`O=C(Nc1ccc(Cl)c(Cl)c1)[C@H]1[C@@H](c2ccncc2)[C@H]2O[C@@H]1C[C@@H]2O` (racemic) [Example 47, rac-(1R,2S,3S,4R,5S)—N-(3,4-dichlorophenyl)-5-hydroxy-3-(pyridin-4-yl)-7-oxabicyclo[2.2.1]heptane-2-carboxamide]: the EC50 is 7.8 µM and the Emax worked out at 38%.
For the compound `COc1cc([C@H]2[C@H]3O[C@H](C[C@@H]3F)[C@H]2C(=O)Nc2ccc(Cl)c(Cl)c2)ccn1` [Example 19, (1R,2S,3S,4R,5S)-N-(3,4-dichlorophenyl)-5-fluoro-3-(2-methoxypyridin-4-yl)-7-oxabicyclo[2.2.1]heptane-2-carboxamide], the EC50 is 25 µM and the Emax came to 258%.
As for `Nc1ncc([C@@H]2[C@@H](C(=O)Nc3ccc(Cl)c(Cl)c3)[C@@H]3O[C@H]2C[C@H]3F)cn1` [Example 114, (1S,2R,3S,4S,6R)-3-(2-aminopyrimidin-5-yl)-N-(3,4-dichlorophenyl)-6-fluoro-7-oxabicyclo[2.2.1]heptane-2-carboxamide], the concentration for a half-maximal effect (EC50) turned out to be 30 µM and the Emax was 127%.
Regarding `Cc1cc([C@H]2[C@H]3O[C@H](C[C@@H]3O)[C@@H]2C(=O)Nc2ccc(-c3ccccc3F)c(Cl)c2)ccn1` [Example 78, (1R,2R,3S,4R,5S)—N-(2-chloro-2′-fluoro-[1,1′-biphenyl]-4-yl)-5-hydroxy-3-(2-methylpyridin-4-yl)-7-oxabicyclo[2.2.1]heptane-2-carboxamide], the EC50 is more than 50 µM and the Emax is 70%.
With `Cc1cc([C@@H]2[C@@H]3O[C@@H]([C@H]4C[C@H]43)[C@@H]2C(=O)Nc2ccc(Cl)c(Cl)c2)ccn1` (single isomer, unassigned) [Example 23b], the EC50 is more than 50 µM and the Emax was determined as 0%.
Taken in the same sequence, the figures for `Cc1cc([C@H]2[C@H]3O[C@H](C[C@@H]3F)[C@@H]2C(=O)Nc2cccc(C(F)(F)F)c2)ccn1` [Example 107, (1R,2R,3S,4R,5S)-5-fluoro-3-(2-methylpyridin-4-yl)-N-(3-(trifluoromethyl)phenyl)-7-oxabicyclo[2.2.1]heptane-2-carboxamide] were 12 µM and 139%.
Regarding `Cc1cc([C@H]2[C@H]3O[C@H](C[C@H]3F)[C@@H]2C(=O)Nc2ncc(C)s2)ccn1` [Example 102, (1R,2R,3S,4R,5R)-5-fluoro-3-(2-methylpyridin-4-yl)-N-(5-methylthiazol-2-yl)-7-oxabicyclo[2.2.1]heptane-2-carboxamide], the concentration giving a half-maximal response (EC50) came to 2.1 µM and the Emax was found to be 84%.
`COc1ccc(NC(=O)[C@@H]2[C@@H](c3ccnc(C)c3)[C@H]3O[C@@H]2C[C@H]3F)cn1` [Example 97, (1R,2R,3S,4R,5R)-5-fluoro-N-(6-methoxypyridin-3-yl)-3-(2-methylpyridin-4-yl)-7-oxabicyclo[2.2.1]heptane-2-carboxamide]: the EC50 is more than 50 µM and the Emax turned out to be 2%.
For `COc1cc([C@H]2[C@H]3O[C@H](C[C@@H]3O)[C@@H]2C(=O)Nc2ccc(Cl)c(Cl)c2)ccn1` (racemic) [Example 139, rac-(1R,2R,3S,4R,5S)—N-(3,4-dichlorophenyl)-5-hydroxy-3-(2-methoxypyridin-4-yl)-7-oxabicyclo[2.2.1]heptane-2-carboxamide], in that order: 21 µM and 223%.
For the compound `COc1cc([C@H]2[C@H]3O[C@H](C[C@H]3F)[C@H]2C(=O)Nc2ccc(Cl)c(Cl)c2)ccn1` [Example 65, (1R,2S,3S,4R,5R)—N-(3,4-dichlorophenyl)-5-fluoro-3-(2-methoxypyridin-4-yl)-7-oxabicyclo[2.2.1]heptane-2-carboxamide], the half-maximal effective concentration (EC50) is 18 µM and the Emax is 169%.
As to `Cc1cc([C@H]2[C@H]3O[C@H](C[C@H]3F)[C@H]2C(=O)Nc2ccc(Cl)c(Cl)c2)ccn1` [Example 13, (1R,2S,3S,4R,5R)-N-(3,4-dichlorophenyl)-5-fluoro-3-(2-methylpyridin-4-yl)-7-oxabicyclo[2.2.1]heptane-2-carboxamide], the 50% effective concentration (EC50) was 4.5 µM and the Emax is 68%.
For the compound `Cc1cc([C@H]2[C@H](C(=O)Nc3ccc(Cl)c(Cl)c3)[C@H]3O[C@@H]2C[C@H]3F)ccn1` (single isomer, unassigned) [Example 95], the EC50 stood at 11 µM and the Emax stood at 113%.
`O=C(Nc1ccc(Cl)c(Cl)c1)[C@H]1[C@@H]2O[C@@H]([C@@H](O)[C@H]2O)[C@@H]1c1ccncc1` [Example 160, (1S,2R,3S,4R,5S,6R)—N-(3,4-dichlorophenyl)-5,6-dihydroxy-3-(pyridin-4-yl)-7-oxabicyclo[2.2.1]heptane-2-carboxamide]: the EC50 was more than 50 µM and the Emax is 32%.
For `O=C(Nc1ccc(Cl)c(Cl)c1)[C@@H]1[C@H](c2ccnc(F)c2)[C@@H]2O[C@H]1C[C@H]2O` (single isomer, unassigned) [Example 52b], in that order: more than 50 µM and 1%.
For `O=C(Nc1cnc(Cl)c(Cl)c1)[C@@H]1[C@@H](c2ccnc(F)c2)[C@H]2O[C@@H]1C[C@@H]2O` (racemic) [Example 90, rac-(1R,2R,3S,4R,5S)—N-(5,6-dichloropyridin-3-yl)-3-(2-fluoropyridin-4-yl)-5-hydroxy-7-oxabicyclo[2.2.1]heptane-2-carboxamide], in that order: more than 50 µM and 45%.
Taken in the same sequence, the figures for `Cc1cc([C@H]2[C@H]3O[C@H](C[C@@H]3O)[C@H]2C(=O)Nc2cnc(C)c(Cl)c2)ccn1` [Example 5, (1R,2S,3S,4R,5S)-N-(5-chloro-6-methylpyridin-3-yl)-5-hydroxy-3-(2-methylpyridin-4-yl)-7-oxabicyclo[2.2.1]heptane-2-carboxamide] were more than 50 µM and 18%.
Consider `Cc1cc([C@H]2[C@H]3O[C@H]([C@@H]4C[C@@H]43)[C@@H]2C(=O)Nc2ccc(Cl)cc2C#N)ccn1` [Example 67, (1S,2S,4R,5R,6R,7S)—N-(4-chloro-2-cyanophenyl)-7-(2-methylpyridin-4-yl)-8-oxatricyclo[3.2.1.0^2,4]octane-6-carboxamide], for which the EC50 is more than 50 µM and the Emax was determined as 39%.
For `O=C(Nc1ccc(Cl)c(Cl)c1)[C@@H]1[C@@H]2O[C@@H]([C@H]3C[C@H]32)[C@@H]1c1cnc(F)nc1` [Example 36, (1S,2S,4R,5R,6S,7S)—N-(3,4-dichlorophenyl)-7-(2-fluoropyrimidin-5-yl)-8-oxatricyclo[3.2.1.0^2,4]octane-6-carboxamide], in that order: 8.6 µM and 124%.
`O=C(Nc1cccc(C(F)(F)F)c1)[C@@H]1[C@@H]2O[C@@H](C[C@H]2O)[C@@H]1c1ccncc1` [Example 12, (1S,2S,3S,4S,6R)-6-hydroxy-3-(pyridin-4-yl)-N-[3-(trifluoromethyl)phenyl]-7-oxabicyclo[2.2.1]heptane-2-carboxamide]: the EC50 was more than 50 µM and the Emax stood at 22%.
For `O=C(Nc1cnc(Cl)c(Cl)c1)[C@H]1[C@@H](c2ccncc2)[C@H]2O[C@@H]1C[C@@H]2O` (single isomer, unassigned) [Example 10a], the EC50 is more than 50 µM and the Emax came out at 55%.
For `O=C(Nc1ccc(Cl)c(Cl)c1)[C@@H]1[C@@H](c2ccncc2)[C@H]2O[C@@H]1C[C@@H]2O` [Example 150, (1R,2R,3S,4R,5S)—N-(3,4-dichlorophenyl)-5-hydroxy-3-(pyridin-4-yl)-7-oxabicyclo[2.2.1]heptane-2-carboxamide], the EC50 is more than 50 µM and the Emax is 5%.
For `O=C(Nc1ccc(Cl)c(Cl)c1)[C@@H]1[C@@H](c2cc(F)ncc2F)[C@H]2O[C@@H]1C[C@@H]2O` [Example 147, (1R,2R,3S,4R,5S)—N-(3,4-dichlorophenyl)-3-(2,5-difluoropyridin-4-yl)-5-hydroxy-7-oxabicyclo[2.2.1]heptane-2-carboxamide], in that order: 28 µM and 284%.
Regarding `O=C(Nc1cnc(Cl)c(Cl)c1)[C@@H]1[C@@H]2O[C@@H]([C@H]3C[C@H]32)[C@@H]1c1ccncc1` (single isomer, unassigned) [Example 43b], the EC50 was more than 50 µM and the Emax amounted to 3%.
With `Cc1cc([C@H]2[C@H]3O[C@H]([C@H](O)[C@@H]3O)[C@@H]2C(=O)Nc2cnc(C)c(C(F)(F)F)c2)ccn1` [Example 163, (1S,2R,3S,4R,5S,6R)-5,6-dihydroxy-N-(6-methyl-5-(trifluoromethyl)pyridin-3-yl)-3-(2-methylpyridin-4-yl)-7-oxabicyclo[2.2.1]heptane-2-carboxamide], the EC50 was more than 50 µM and the Emax stood at 23%.
